Entries after “also recorded” stand apart in the source; their conditions may differ.
Assays:
[1] = tested on: myelin-basic protein (MBP) specific, CD4-positive rat T cell blasts; assay: In vitro toxicity assay on T cell blasts; type: cell-based
Procedure: Resting MBP-GFP Tcells were plated in 96-wells (5×10^4/well). Substances to test were added at different concentration to the cells and incubated for 1 h.
Cells stimulated by the addition of thymocytes (1.5×10^6/well) and MBP.
Absolute numbers of MBP-GFP T cells were determined by quantitative cytofluorometrical analysis after 24 and 48 hours (FACS-Calibur BektonDickinson).
Activated MBP-GFP Tcells were also incubated with different concentration of substances to test and absolute numbers of MBP-GFP T cells were determined by quantitative cytofluorometrical analysis after 24 and 48 hours (FACS-Calibur BektonDickinson).
Cells were stimulated in presence of MBP-pulsed irradiated APCs and increasing concentrations of BZ194. After 48 h cells were collected for cytofluorometric cell count A and RNA extraction was performed for quantitative PCR analysis (IL2) B. Effect of BZ194 on pre-activated T cell blasts C. Amplification of MBP-specific T cells which had been incubated before in the presence of DMSO or 0.5 mM or 1 mM BZ194 D.

[2] = tested on: encephalitogenic (MBP-specific GFP) T cells and inflammatory cells in CNS and spleen; assay: Cytofluorometric cell counts in organs of EAE animals; type: in vivo, rat
Procedure: Animals (6 per group, body weight approx. 150 g) were injected i.p. twice per day with either PBS (vehicle control), nicotinic acid (50 μmol/100 g body weight), or BZ 52 (50 μmol/100 g body weight). […] Data are corrected for organ mass and presented as mean±SD from one representative experiment.
Cytofluorometric cell counts of MBP-specific GFP T cells in spleen A and CNS B of BZ194 (500 μmol) and DMSO-treated animals at d 3 after T cell transfer.
Cytofluorometric counts of T cells (CD4/8, abTCR), monocytes/macrophages (CD11b), dendritic cells (CD11c), B cells (OX33/CD45RA) and LFA-1+ (CD11a) and MHC class II+ (OX-6) cells in EAE lesions 4 days after T cell transfer after BZ194 (5 d, 500 μmol, blue bars) or vehicle (DMSO, magenta bars).
Single cell suspensions from organs were prepared as described previously (Flügel et al. 2001, Immunity). TGFP cells were sorted immediately after cell preparation in PBS containing 2% glucose at 4° C. using FACS Vantage (Becton Dickinson) or MoFlo sorter (Cytomation Bioinstruments, Freiburg, Germany). Cytofluorometric analysis was performed with FACS-Calibur operated by Cell Quest software (Becton Dickinson). The following monoclonal antibodies were used for surface membrane analysis: W3/25 (anti-CD4), OX33 (CD45RA, B cells, both from Serotec, Düsseldorf, Germany), R73 (abTCR), OX-6 (rat MHC class II), OX-40 antigen (CD134), OX-39 (CD25, IL-2Ra chain), CD8a, CD8b, CD11a (LFA-1a), CD11b (integrin aM chain), CD11b/c (OX42), CD11c (integrin aX chain) (all Becton Dickinson, Heidelberg, Germany). Allophycocyanin-labeled anti-mouse antibody (Invitrogen, Karlsruhe, Germany) was used as secondary antibody.

[3] = tested on: T cell receptor/CD3 complex mediated Ca2+ signalling; assay: Ca2+ signalling evoked by crosslinking of CD3 in rat encephalitogenic (MBP-specific) T cells; type: cell-based; conditions: for TCR/CD3-induced Ca2+ signalling: T-lymphocytes, summary statement
Source text: Assuming that the NAADP/Ca^2+ signalling system plays an important role in T cell receptor/CD3 mediated activation, one would expect an inhibitory effect of BZ 52 on stimulation of rat encephalitogenic CD4-positive T cells via CD3 crosslinking. Thus, Fura2-loaded rat encephalitogenic CD4-positive T cells (resting) were stimulated by anti-CD3 followed by crosslinking of the primary antibody (FIG. 11, black line). A rapid high increase of [Ca^2+]i followed by a briefly elevated sustained phase was observed.
Fura2-loaded rat T cells were analyzed for [Ca^2+]i by fluorimetry. First arrow indicates addition of anti-CD3 mAb, second arrow indicates addition of a crosslinking secondary antibody. In case of BZ 52 cells were preincubated with BZ 52 (500 μM) for 60 min at RT.
Resting rat T cells were loaded with fura2/AM and suspension measurements were carried out as described in [4]. Arrows indicate time point of addition of antibody or Ca^2+ solution. A, Addition of anti-CD3-mAb (1st arrow) and a crosslinking, secondary antibody (2nd arrow). B, Bar chart summarizing data from A (transient Ca^2+ peak and Ca^2+ plateau; mean±s.e.m, n=8-9). C, Under Ca^2+ free conditions the anti-CD3-mAb (1st arrow) and secondary crosslinking antiserum (2nd arrow) were added; then [Ca^2+] was increased to 1 mM (3rd arrow). D, Bar chart summarizing data from C (transient Ca^2+ release peak, Ca^2+ influx peak, Ca^2+ influx plateau and the difference between Ca^2+ influx peak and plateau (=Overshoot); mean±s.e.m, n=6-7). The negative controls are without stimulation by anti-CD3-mAb.
[Ca^2+]i was measured by using the fluorescent indicator Fura2/AM. In brief, 10^7 cells were loaded with Fura2/AM, and fluorescence was determined in batches of 1.5×10^6 cells with an Hitachi F-2000 fluorimeter at excitation and emission wavelengths of 340 and 380 nm (exc.) and 505 nm (em.), respectively. Measurements were carried out at 20° C. At the end of each single measurement maximal and minimal ratios were determined by addition of Triton X-100 and EGTA/Tris.

SMILES	number of T cell blasts ([1]; BZ52 up to 500 μM, 48 h, non-proliferating cells)	number of encephalitogenic T cells ([2]; day 4 post transfer, 50 μmol/100 g i.p. twice per day)	decrease of number of CNS-infiltrating encephalitogenic T cells ([2]; day 4 post transfer, 50 μmol/100 g i.p. twice per day, one animal per group)	TCR/CD3-induced Ca2+ signalling [3]	Ca2+ signalling upon CD3-crosslinking ([3]; preincubation 60 min with 500 μM BZ52)	amplification of pre-activated MBP-specific T cells ([1]; in the presence of BZ194)	recruitment of T cells, B cells, macrophages and dendritic cells into the CNS ([2]; 4 days after T cell transfer, BZ194 5 d, 500 μmol)	infiltration of MBP-specific T cells into the CNS ([2]; spinal cord, three days after T cell transfer, BZ194 500 μmol)	distribution of TMBP-GFP cells in spleen ([2]; three days after T cell transfer, BZ194 500 μmol)	TCR/CD3 complex mediated Ca2+ signalling ([3]; MBP-specific rat T cell suspensions, standard and Ca2+-free/Ca2+-reintroduction protocol)	sustained Ca2+ signalling ([3]; both protocols, MBP-specific rat T cells)
CCCCN(CCCC)C(=O)C[n+]1cccc(C(=O)O)c1 [BZ52, 3-Carboxy-1-dibutylcarbamoylmethyl-pyridinium]	did not much reduce	reduced significantly	about 50%	efficiently inhibited	significantly inhibited	–	–	–	–	–	–
CCCCCCCCNC(=O)C[n+]1cccc(C(=O)O)c1.[Br-] [BZ194, 3-Carboxy-1-Octylcarbamoylmethyl-Pyridinium]	–	–	–	efficiently inhibited	–	not influenced	clearly diminished	reduced; also recorded: seemed to interfere	accumulated in the spleen	partially blocked	almost completely abolished

From patent US20070105810A1, “THERAPEUTICS” (priority 2003, published 2007)
